{"source": "paper PMC7724566", "about": "“Prospects for Clinical Development of Stat5 Inhibitor IST5-002: High Transcriptomic Specificity in Prostate Cancer and Low Toxicity In Vivo” (Cancers, 2020)", "key": {"C57BL/6j mice": {"tested_on": "C57BL/6j mice", "experiment": "Sub-chronic toxicity study (10 days), hematology", "format": "in vivo", "conditions": "daily i.p. 10 days, blood", "protocol": "The sub-chronic toxicity study (10 days) was carried out in C57BL/6J mice (8 weeks) (stock 000664) (n = 10/dose group 5 of each sex). IST5 was administered daily (0, 10, 30 and 100 mg/kg) via i.p. injection. Vehicle (0 mg/kg) group mice received a single i.p. injection of 0.3% hydroxypropyl cellulose. Plasma samples were analyzed for aspartate aminotransferase (AST), alanine aminotransferase (ALT), sorbitol dehydrogenase (SDH), alkaline phosphatase (ALP), γ-lutamyltransferase (GGT), lactate dehydrogenase (LDH), bilirubin (TBIL), protein (TP), glucose (GLU), blood urea nitrogen (BUN), creatinine (CREAT), and electrolytes (Na, K, Cl, Ca, CO2) (Marshfield Labs, WI, USA). A detailed hematological analysis was carried out on the sub-mandibular blood samples of mice collected at the end of the protocol and analyzed for white blood cells, red blood cells, hemoglobin, lymphocyte counts, monocytes, eosinophils and granulocytes. Brain, liver, heart, kidney and spleen were harvested, weighed and fixed in 10% buffered formalin and processed for histopathological analysis. In histopathological analysis, gross morphology and ultra-structural change were assessed. The clinical chemistry parameters measured were the same as those used for the acute toxicity study."}, "[1]": {"tested_on": "enzalutamide-resistant PC", "design": "method as in PMID 31548294", "conditions": "cited from earlier work"}, "Stat5": {"target": "T1, Stat5 (Homo sapiens, UniProt P42229)", "T1 construct": "expressed in transfected cells; host or cells: CWR22Rv1", "experiment": "Native-gel-based Stat5 dimerization assay, CWR22Rv1 cells", "format": "cell-based", "conditions": "1 µM, 6 h, Prl (10 nM) stimulated CWR22Rv1 cells, STAT5A-eYFP", "from_the_text": "Having established that IST5 and IST5-M both interrupt phosphorylation of Stat5, we next investigated the potency of IST5-M vs. IST5 in suppressing dimerization of Stat5 in PC cells. First, we performed a native Polyacrylamide Gel Electrophoresis (PAGE) based Stat5 dimerization assay established originally by Fahrenkamp et al., where CWR22Rv1 cells were transfected with STAT5A-eYFP (Stat5 wild type), STAT5A-N642H-eYFP (constitutive activated Stat5 by N642H mutation, as a positive control) or STAT3-eYFP (Stat3 wild type, as a negative control) constructs for 3 days (Figure 5A). CWR22Rv1 cells were starved for 16 h, pretreated with vanadate (1 mM) for 2 h, followed by treatment with vehicle, IST5 or IST5-M (1 µM) for 6 h and stimulation with Prl (10 nM) for 1 h.\nFigure 5 Both IST5 and IST5-M suppress dimerization of Stat5 with similar efficacies in prostate cancer cells. (A), IST5 and IST5-M inhibit equally potently dimerization of Stat5 in native-gel-based Stat5 dimerization assay. […] Dimerization of Stat5 was analyzed by detection of the eYFP fluorescence of the native Coomassie gel. […] (E), differences in posttranslational modifications were detected between native and recombinant STAT5a using mass spectrometry. Native STAT5a from CWR22Rv1 cells and recombinant STAT5a from E. coli were gel-purified, digested using trypsin, and analyzed by bottom-up mass spectrometry. […]"}, "PC cells": {"tested_on": "PC cells", "design": "method as in PMID 18316550, PMID 23942095, PMID 26362718, PMID 20966544, PMID 20233708", "conditions": "cited from earlier work"}}}
{"smiles": "O=P(O)(O)OCC1OC(n2cnc3c(NCc4ccccc4)ncnc32)C(O)C1O", "note": "(stereo not shown) [IST5]", "values": [{"measurement": "EOS", "setting": "C57BL/6j mice; 10 mg/kg", "value": "3.88 ± 1.0", "unit": "%"}, {"measurement": "GRA", "setting": "C57BL/6j mice; 10 mg/kg", "value": "25.9 ± 2.3", "unit": "%"}, {"measurement": "HGB", "setting": "C57BL/6j mice; 10 mg/kg", "value": "19.8 ± 1.4", "unit": "g/dL"}, {"measurement": "LYM", "setting": "C57BL/6j mice; 10 mg/kg", "value": "67.8 ± 2.0", "unit": "%"}, {"measurement": "MON", "setting": "C57BL/6j mice; 10 mg/kg", "value": "6.29 ± 0.75", "unit": "%"}, {"measurement": "PLT", "setting": "C57BL/6j mice; 10 mg/kg", "value": "614 ± 119 10^3/µL"}, {"measurement": "RBC", "setting": "C57BL/6j mice; 10 mg/kg", "value": "10.59 ± 0.2", "unit": "M/uL"}, {"measurement": "WBC", "setting": "C57BL/6j mice; 10 mg/kg", "value": "4.18 ± 0.65", "unit": "K/uL"}, {"measurement": "EOS", "setting": "C57BL/6j mice; 30 mg/kg", "value": "5.29 ± 1.35", "unit": "%"}, {"measurement": "GRA", "setting": "C57BL/6j mice; 30 mg/kg", "value": "29.7 ± 6.7", "unit": "%"}, {"measurement": "HGB", "setting": "C57BL/6j mice; 30 mg/kg", "value": "18.2 ± 2.5", "unit": "g/dL"}, {"measurement": "LYM", "setting": "C57BL/6j mice; 30 mg/kg", "value": "63.23 ± 6.7", "unit": "%"}, {"measurement": "MON", "setting": "C57BL/6j mice; 30 mg/kg", "value": "7.06 ± 0.5", "unit": "%"}, {"measurement": "PLT", "setting": "C57BL/6j mice; 30 mg/kg", "value": "553 ± 154 10^3/µL"}, {"measurement": "RBC", "setting": "C57BL/6j mice; 30 mg/kg", "value": "9.61 ± 0.31", "unit": "M/uL"}, {"measurement": "WBC", "setting": "C57BL/6j mice; 30 mg/kg", "value": "3.76 ± 0.55", "unit": "K/uL"}, {"measurement": "enzalutamide-resistant PC growth in mice", "setting": "[1]", "value": "blocks enzalutamide-resistant PC growth"}, {"measurement": "inhibition of Stat5 dimerization", "setting": "Stat5", "value": "inhibited robustly"}, {"measurement": "apoptotic death of PC cells", "setting": "PC cells", "value": "induce extensive apoptotic death"}]}
